# Experimental data: patent publication US11053204B2, “Pyrimidinyloxy benzene derivatives as herbicides” (FMC Corporation, priority 2015, dated 2021)
# Tests used:
# Format in all cases: in vivo
# [1] = tested on: galium (catchweed bedstraw, Galium aparine); assay: Test C preemergence, plant response rating
# [2] = tested on: johnsongrass (Sorghum halepense); assay: Test C preemergence, plant response rating
# [3] = tested on: barnyardgrass (Echinochloa crus-galli); assay: Test C preemergence, plant response rating; conditions: Preemergence
# [4] = tested on: pigweed, palmer (palmer pigweed, Amaranthus palmeri); assay: Test C preemergence, plant response rating
# [5] = tested on: kochia (Kochia scoparia); assay: Test C preemergence, plant response rating
# [6] = tested on: windgrass (Apera spica-venti); assay: Test C preemergence, plant response rating
# [7] = tested on: Canada thistle (Cirsium arvense); assay: Test C postemergence, plant response rating; conditions: for Canada Thistle plant response rating: scale 0 to 100 (0 no effect, 100 complete control)
# Procedure, shortened: (§1)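 Visual injury score, 0 = no effect, 100 = complete control, assigned against untreated controls after 13 to 15 d in the greenhouse. Compounds were applied in a surfactant-containing non-phytotoxic solvent mix, preemergence to seeded loam/sand or silt loam soil, or postemergence to 1- to 4-leaf plants (2 to 18 cm).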
# [8] = tested on: buckwheat, wild (wild buckwheat, Polygonum convolvulus); assay: Test C postemergence, plant response rating; conditions: for Buckwheat, Wild plant response rating: scale 0 to 100 (0 no effect, 100 complete control)
# Procedure, shortened: as §1
# [9] = tested on: field poppy (Papaver rhoeas); assay: Test C postemergence, plant response rating; conditions: for Field Poppy plant response rating: scale 0 to 100 (0 no effect, 100 complete control)
# Procedure, shortened: as §1
# [10] = tested on: field violet (Viola arvensis); assay: Test C postemergence, plant response rating; conditions: for Field Violet plant response rating: scale 0 to 100 (0 no effect, 100 complete control)
# Procedure, shortened: as §1
# [11] = tested on: geranium, cutleaf (cutleaf geranium, Geranium dissectum); assay: Test C postemergence, plant response rating; conditions: for Geranium, Cutleaf plant response rating: scale 0 to 100 (0 no effect, 100 complete control)
# Procedure, shortened: as §1
# [12] = tested on: johnsongrass (Sorghum halepense); assay: Test C postemergence, plant response rating; conditions: for Johnsongrass plant response rating: scale 0 to 100 (0 no effect, 100 complete control)
# Procedure, shortened: as §1
# [13] = tested on: nightshade (eastern black nightshade, Solanum ptycanthum); assay: Test C postemergence, plant response rating; conditions: for Nightshade plant response rating: scale 0 to 100 (0 no effect, 100 complete control)
# Procedure, shortened: as §1
# [14] = tested on: pigweed, palmer (palmer pigweed, Amaranthus palmeri); assay: Test C postemergence, plant response rating; conditions: for Pigweed, Palmer plant response rating: scale 0 to 100 (0 no effect, 100 complete control)
# Procedure, shortened: as §1
# [15] = tested on: speedwell (bird's-eye speedwell, Veronica persica); assay: Test C postemergence, plant response rating; conditions: for Speedwell plant response rating: scale 0 to 100 (0 no effect, 100 complete control)
# Procedure, shortened: as §1
# [16] = tested on: surinam grass (Brachiaria decumbens); assay: Test C postemergence, plant response rating
# Procedure, shortened: as §1
# [17] = tested on: wild mustard (Sinapis arvensis); assay: Test C postemergence, plant response rating; conditions: for Mustard, Wild plant response rating: scale 0 to 100 (0 no effect, 100 complete control)
# Procedure, shortened: as §1
# [18] = tested on: wild poinsettia (Euphorbia heterophylla); assay: Test C postemergence, plant response rating; conditions: for Poinsettia, Wild plant response rating: scale 0 to 100 (0 no effect, 100 complete control)
# Procedure, shortened: as §1
# [19] = tested on: windgrass (Apera spica-venti); assay: Test C postemergence, plant response rating
# Procedure, shortened: as §1
# [20] = 125 g ai/ha, scale 0 to 100 (0 no effect, 100 complete control)
structure (smiles),measurement,setting,value
O=C(CCCCC(F)(F)F)c1c(Br)cccc1Oc1ncc(Cl)cn1 [Compound 82],"Plant response rating, Galium","[1]; 31 g ai/ha, scale 0 to 100",0
same,"Plant response rating, Galium","[1]; 62 g ai/ha, scale 0 to 100",0
same,"Plant response rating, Galium","[1]; 125 g ai/ha, scale of 0 to 100",80
same,"Plant response rating, Johnsongrass","[2]; 31 g ai/ha, scale 0 to 100",5
same,"Plant response rating, Johnsongrass","[2]; 62 g ai/ha, scale 0 to 100",40
same,"Plant response rating, Johnsongrass","[2]; 125 g ai/ha, scale of 0 to 100",85
same,"Plant response rating, Barnyardgrass","[3]; 125 g ai/ha, scale of 0 to 100",90
same,"Plant response rating, Barnyardgrass","[3]; 16 g ai/ha, scale 0 to 100",5
same,"Plant response rating, Barnyardgrass","[3]; 31 g ai/ha, scale 0 to 100",5
same,"Plant response rating, Barnyardgrass","[3]; 62 g ai/ha, scale 0 to 100",20
same,"Plant response rating, Pigweed, Palmer","[4]; 31 g ai/ha, scale 0 to 100",85
same,"Plant response rating, Pigweed, Palmer","[4]; 62 g ai/ha, scale 0 to 100",100
same,"Plant response rating, Pigweed, Palmer","[4]; 125 g ai/ha, scale of 0 to 100",100
same,"Plant response rating, Kochia","[5]; 31 g ai/ha, scale 0 to 100",50
same,"Plant response rating, Kochia","[5]; 62 g ai/ha, scale 0 to 100",90
same,"Plant response rating, Kochia","[5]; 125 g ai/ha, scale of 0 to 100",95
same,"Plant response rating, Windgrass","[6]; 31 g ai/ha, scale 0 to 100",30
same,"Plant response rating, Windgrass","[6]; 62 g ai/ha, scale 0 to 100",80
same,"Plant response rating, Windgrass","[6]; 125 g ai/ha, scale of 0 to 100",90
same,"Plant response rating, Canada Thistle","[7]; 16 g ai/ha, scale of 0 to 100",85
same,"Plant response rating, Canada Thistle","[7]; 31 g ai/ha, scale 0 to 100",85
same,Canada Thistle plant response rating,[7]; 62 g ai/ha,85
same,Canada Thistle plant response rating,[7]; 125 g ai/ha,98
same,"Plant response rating, Buckwheat, Wild","[8]; 16 g ai/ha, scale of 0 to 100",80
same,"Plant response rating, Buckwheat, Wild","[8]; 31 g ai/ha, scale 0 to 100",70
same,"Buckwheat, Wild plant response rating",[8]; 62 g ai/ha,100
same,"Buckwheat, Wild plant response rating",[8]; 125 g ai/ha,100
same,"Plant response rating, Field Poppy","[9]; 16 g ai/ha, scale of 0 to 100",50
same,"Plant response rating, Field Poppy","[9]; 31 g ai/ha, scale 0 to 100",85
same,Field Poppy plant response rating,[9]; 62 g ai/ha,100
same,Field Poppy plant response rating,[9]; 125 g ai/ha,100
same,"Plant response rating, Field Violet","[10]; 16 g ai/ha, scale of 0 to 100",60
same,"Plant response rating, Field Violet","[10]; 31 g ai/ha, scale 0 to 100",70
same,Field Violet plant response rating,[10]; 62 g ai/ha,90
same,Field Violet plant response rating,[10]; 125 g ai/ha,90
same,"Plant response rating, Geranium, Cutleaf","[11]; 16 g ai/ha, scale of 0 to 100",30
same,"Plant response rating, Geranium, Cutleaf","[11]; 31 g ai/ha, scale 0 to 100",30
same,"Geranium, Cutleaf plant response rating",[11]; 62 g ai/ha,40
same,"Geranium, Cutleaf plant response rating",[11]; 125 g ai/ha,60
same,"Plant response rating, Johnsongrass","[12]; 16 g ai/ha, scale of 0 to 100",5
same,"Plant response rating, Johnsongrass","[12]; 31 g ai/ha, scale 0 to 100",20
same,Johnsongrass plant response rating,[12]; 62 g ai/ha,10
same,Johnsongrass plant response rating,[12]; 125 g ai/ha,30
same,"Plant response rating, Nightshade","[13]; 16 g ai/ha, scale of 0 to 100",85
same,"Plant response rating, Nightshade","[13]; 31 g ai/ha, scale 0 to 100",80
same,Nightshade plant response rating,[13]; 62 g ai/ha,95
same,Nightshade plant response rating,[13]; 125 g ai/ha,100
same,"Plant response rating, Pigweed, Palmer","[14]; 16 g ai/ha, scale of 0 to 100",75
same,"Plant response rating, Pigweed, Palmer","[14]; 31 g ai/ha, scale 0 to 100",80
same,"Pigweed, Palmer plant response rating",[14]; 62 g ai/ha,98
same,"Pigweed, Palmer plant response rating",[14]; 125 g ai/ha,98
same,"Plant response rating, Speedwell","[15]; 16 g ai/ha, scale of 0 to 100",75
same,"Plant response rating, Speedwell","[15]; 31 g ai/ha, scale 0 to 100",85
same,Speedwell plant response rating,[15]; 62 g ai/ha,95
same,Speedwell plant response rating,[15]; 125 g ai/ha,95
same,"Plant response rating, Surinam Grass","[16]; 16 g ai/ha, scale of 0 to 100",20
same,"Plant response rating, Surinam Grass","[16]; 31 g ai/ha, scale 0 to 100",20
same,Surinam Grass plant response rating,[16]; [20],25
same,"Plant response rating, Mustard, Wild","[17]; 16 g ai/ha, scale of 0 to 100",95
same,"Plant response rating, Mustard, Wild","[17]; 31 g ai/ha, scale 0 to 100",95
same,"Mustard, Wild plant response rating",[17]; 62 g ai/ha,100
same,"Mustard, Wild plant response rating",[17]; 125 g ai/ha,100
same,"Plant response rating, Poinsettia, Wild","[18]; 16 g ai/ha, scale of 0 to 100",40
same,"Plant response rating, Poinsettia, Wild","[18]; 31 g ai/ha, scale 0 to 100",65
same,"Poinsettia, Wild plant response rating",[18]; 62 g ai/ha,85
same,"Poinsettia, Wild plant response rating",[18]; 125 g ai/ha,75
same,"Plant response rating, Windgrass","[19]; 16 g ai/ha, scale of 0 to 100",10
same,"Plant response rating, Windgrass","[19]; 31 g ai/ha, scale 0 to 100",35
same,Windgrass plant response rating,[19]; [20],35
